Reference: patent US10995359B2, “Method for determining drug-sensitive human cell lines by analysis method in which measurement of activity of two types of protein kinase is used” (NITTO BOSEKI CO., LTD., priority 2015, dated 2021)

Legend:
Assay in all cases: Drug sensitivity assay (cell growth test), sulforhodamine B
Assay type in all cases: cell-based
SUM185PE (LAR) cells = conditions: Homo sapiens, 72 hours, read-out: inhibition rate (%) by wortmannin, classification by grid analysis
Description: (§1) Cultured cells were treated with a MEK inhibitor and a PI3K inhibitor in various concentrations, and cell lines sensitive to MEK and PI3K were classified by calculating a cell growth inhibition rate. The culture method and analysis method are as follows.
(§2) Thirteen types of cells used in the present study, HCC38 (BL1), MDA-MB-231 (MSL), DU4475 (IM), HCC1187 (IM), HCC1143 (BL1), HCC1395 (LAR), HCC1937 (BL1), MDA-MB-453 (LAR), HCC70 (BL2), HS578T (MSL), MDA-MB-157 (MSL) and MDA-MB-468 (BL1), were obtained from American type culture collection (ATCC), and SUM185PE (LAR) was obtained from ASTERAND BIOSCIENCE. All the cells belong to triple negative breast cancer (TNBC), and it is known which of six types (BL1, BL2, M, MSL, IM and LAR) these belong to by an existing classification method.
(§3) All the cells were cultured in a medium designated from a source of supply, and 2 mM L-glutamine and 10% fetal bovine serum (FBS) were supplemented.
(§4) Each type of cells was seeded in a 96 well titer plate at 1×10^4 cells/well, and trametinib, an MEK inhibitor (Medchem Express; 0.08, 0.16, 0.31, 0.63, 1.25, 2.5, 5, 10 and 20 μM), and wortmannin, a PI3K inhibitor (Wako Pure Chemical Industries, Ltd.; 0.08, 0.16, 0.31, 0.63, 1.25, 2.5, 5, 10 and 20 μM) were dissolved in Dimethyl Sulfoxide [DMSO] (Wako Pure Chemical Industries, Ltd.) in various concentrations and treated. In addition, the effect on cell growth was examined at 72 hours after the inhibitor by sulforhodamine B assay (manufactured by SIGMA-ALDRICH), and 50 μL of sulforhodamine B solution was added to each well and cells were left at room temperature for an hour for staining. The staining degree of metabolically survival cells was examined by monitoring absorbance at a wavelength of 565 nm using a microtiter plate. The absorbance of cells which were not treated with trametinib and wortmannin (treated with DMSO) was used as a control and defined as 100% to calculate a cell growth inhibition rate.
(§5) The cell lines were classified into 4 types, cell lines sensitive to wortmannin (hereinafter, PA), cell lines sensitive to trametinib (hereinafter, MA), cell lines resistant to wortmannin and trametinib (hereinafter, R), and others (hereinafter, S). In the classification, first the inhibition rate of each drug was calculated in a concentration of 1 μM, and the inhibition rate (%) by trametinib and the inhibition rate (%) by wortmannin were plotted on the X axis and Y axis respectively on a graph.
as §5, with “100 nM,” for “1 μM,”
as §5, with “10” for “1”, “graph. Using a 50% growth inhibition rate as an index of the inhibitive effect of a drug, cells were classified into 4 types by grid analysis.” for “graph.”

MDA-MB-468 (BL1) cells = conditions: Homo sapiens, 72 hours, read-out: inhibition rate (%) by wortmannin, classification by grid analysis
Description: as §1, §2, §3, §4, §5
as §5, with “100 nM,” for “1 μM,”
as §5, with “10” for “1”, “graph. Using a 50% growth inhibition rate as an index of the inhibitive effect of a drug, cells were classified into 4 types by grid analysis.” for “graph.”

MDA-MB-157 (MSL) cells = conditions: Homo sapiens, 72 hours, read-out: inhibition rate (%) by wortmannin, classification by grid analysis
Description: as §1, §2, §3, §4, §5
as §5, with “100 nM,” for “1 μM,”
as §5, with “10” for “1”, “graph. Using a 50% growth inhibition rate as an index of the inhibitive effect of a drug, cells were classified into 4 types by grid analysis.” for “graph.”

HS578T (MSL) cells = conditions: Homo sapiens, Hs-578T, 72 hours, read-out: inhibition rate (%) by wortmannin, classification by grid analysis
Description: as §1, §2, §3, §4, §5
as §5, with “100 nM,” for “1 μM,”
as §5, with “10” for “1”, “graph. Using a 50% growth inhibition rate as an index of the inhibitive effect of a drug, cells were classified into 4 types by grid analysis.” for “graph.”

HCC1143 (BL1) cells = conditions: Homo sapiens, 72 hours, read-out: inhibition rate (%) by wortmannin, classification by grid analysis
Description: as §1, §2, §3, §4, §5
as §5, with “100 nM,” for “1 μM,”
as §5, with “10” for “1”, “graph. Using a 50% growth inhibition rate as an index of the inhibitive effect of a drug, cells were classified into 4 types by grid analysis.” for “graph.”

DU4475 (IM) cells = conditions: Homo sapiens, DU-4475, 72 hours, read-out: inhibition rate (%) by wortmannin, classification by grid analysis
Description: as §1, §2, §3, §4, §5
as §5, with “100 nM,” for “1 μM,”
as §5, with “10” for “1”, “graph. Using a 50% growth inhibition rate as an index of the inhibitive effect of a drug, cells were classified into 4 types by grid analysis.” for “graph.”

HCC70 (BL2) cells = conditions: Homo sapiens, 72 hours, read-out: inhibition rate (%) by wortmannin, classification by grid analysis
Description: as §1, §2, §3, §4, §5
as §5, with “100 nM,” for “1 μM,”
as §5, with “10” for “1”, “graph. Using a 50% growth inhibition rate as an index of the inhibitive effect of a drug, cells were classified into 4 types by grid analysis.” for “graph.”

HCC38 (BL1) cells = conditions: Homo sapiens, 72 hours, read-out: inhibition rate (%) by wortmannin, classification by grid analysis
Description: as §1, §2, §3, §4, §5
as §5, with “100 nM,” for “1 μM,”
as §5, with “10” for “1”, “graph. Using a 50% growth inhibition rate as an index of the inhibitive effect of a drug, cells were classified into 4 types by grid analysis.” for “graph.”

MDA-MB-231 (MSL) cells = conditions: Homo sapiens, 72 hours, read-out: inhibition rate (%) by wortmannin, classification by grid analysis
Description: as §1, §2, §3, §4, §5
as §5, with “100 nM,” for “1 μM,”
as §5, with “10” for “1”, “graph. Using a 50% growth inhibition rate as an index of the inhibitive effect of a drug, cells were classified into 4 types by grid analysis.” for “graph.”

[1] = 100 nM, index 12.5% growth inhibition rate
[2] = 1 μM, index 25% growth inhibition rate
[3] = 10 μM, index 50% growth inhibition rate

COC[C@H]1OC(=O)c2coc3c2[C@@]1(C)C1=C(C3=O)[C@@H]2CCC(=O)[C@@]2(C)C[C@H]1OC(C)=O [wortmannin, Wortmannin]
< 50%: inhibition at 10 µM (MDA-MB-157 (MSL) cells; MDA-MB-157, 10 μM, index 50% growth inhibition rate) | inhibition at 10 µM (HS578T (MSL) cells; [3]) | inhibition at 10 µM (HCC1143 (BL1) cells; HCC1143, 10 μM, index 50% growth inhibition rate) | inhibition at 10 µM (DU4475 (IM) cells; DU4475, 10 μM, index 50% growth inhibition rate) | inhibition at 10 µM (HCC38 (BL1) cells; HCC38, 10 μM, index 50% growth inhibition rate) | inhibition at 10 µM (MDA-MB-231 (MSL) cells; MDA-MB-231, 10 μM, index 50% growth inhibition rate)
> 50%: inhibition at 10 µM (SUM185PE (LAR) cells; [3]) | inhibition at 10 µM (MDA-MB-468 (BL1) cells; MDA-MB-468, 10 μM, index 50% growth inhibition rate) | inhibition at 10 µM (HCC70 (BL2) cells; HCC70, 10 μM, index 50% growth inhibition rate)
< 12.5%: inhibition at 0.1 µM (MDA-MB-157 (MSL) cells; MDA-MB-157, 100 nM, index 12.5% growth inhibition rate) | inhibition at 0.1 µM (HS578T (MSL) cells; [1]) | inhibition at 0.1 µM (HCC1143 (BL1) cells; HCC1143, 100 nM, index 12.5% growth inhibition rate) | inhibition at 0.1 µM (DU4475 (IM) cells; DU4475, 100 nM, index 12.5% growth inhibition rate) | inhibition at 0.1 µM (HCC38 (BL1) cells; HCC38, 100 nM, index 12.5% growth inhibition rate) | inhibition at 0.1 µM (MDA-MB-231 (MSL) cells; MDA-MB-231, 100 nM, index 12.5% growth inhibition rate)
> 25%: inhibition at 1 µM (SUM185PE (LAR) cells; [2]) | inhibition at 1 µM (MDA-MB-468 (BL1) cells; MDA-MB-468, 1 μM, index 25% growth inhibition rate) | inhibition at 1 µM (HCC70 (BL2) cells; HCC70, 1 μM, index 25% growth inhibition rate)
> 12.5%: inhibition at 0.1 µM (SUM185PE (LAR) cells; [1]) | inhibition at 0.1 µM (MDA-MB-468 (BL1) cells; MDA-MB-468, 100 nM, index 12.5% growth inhibition rate) | inhibition at 0.1 µM (HCC70 (BL2) cells; HCC70, 100 nM, index 12.5% growth inhibition rate)
< 25%: inhibition at 1 µM (MDA-MB-157 (MSL) cells; MDA-MB-157, 1 μM, index 25% growth inhibition rate) | inhibition at 1 µM (HS578T (MSL) cells; [2]) | inhibition at 1 µM (HCC1143 (BL1) cells; HCC1143, 1 μM, index 25% growth inhibition rate) | inhibition at 1 µM (DU4475 (IM) cells; DU4475, 1 μM, index 25% growth inhibition rate) | inhibition at 1 µM (HCC38 (BL1) cells; HCC38, 1 μM, index 25% growth inhibition rate) | inhibition at 1 µM (MDA-MB-231 (MSL) cells; MDA-MB-231, 1 μM, index 25% growth inhibition rate)
